These results are taken from PMC8960095 (Virus Genes, 2022).

Molecules are shown by their SMILES. Like-named read-outs stand apart in the source and are kept apart here.

In data set [1] the test system is Vero-E6 cells. Particulars: same study as IC50 against wt CHIKV; cited from earlier work.
Data set [2] relates to wt CHIKV. Particulars: MOI 0.005, cited from earlier work.
The subject of data set [3] is wt CHIKV^Brazil. In words: IC50 evaluation: inhibition of CHIKV-induced cell death. The class given is cell-based, Chikungunya virus. Particulars: for dose-dependent inhibition of CPE / efficacy in Vero-B4: Vero-B4 cells, CHIKV^Brazil, T-1105 range 5–100 µM.
Data set [4] relates to wt CHIKV^Brazil. Described as above. It counts as cell-based, Chikungunya virus. Particulars: for IC50: Chikungunya virus, 96 h, read-out: IC50 (µM) U138; for dose-dependent inhibition of CPE / antiviral effect in U138: U138 cells, wt CHIKV^Brazil.
Data set [5] can be described thus: Toxicity assay. As to conditions: African green monkey, Vero-B4 cells (non-infected).
Data set [6] relates to U138 cells. In words: Toxicity assay. Particulars: for cell damage in toxicity testing: non-infected U138, HCQ 10 µM, T-1105 10 and 50 µM, 4 days.
A short description of data set [7]: Toxicity assay. Particulars: human, U138 cells (non-infected).
The subject of data set [8] is CHIKV^Brazil. The class given is cell-based, Chikungunya virus. Particulars: MOI 0.64, RBV 410 µM (p < 0.001), HCQ 10 µM (p < 0.0001).
The test system of data set [9] is Vero-B4 cells. The data set can be described thus: Toxicity assay. Particulars: read-out: CC50 (µM) Vero-B4; non-infected Vero-B4 cells; MTS after 4 days.
Data set [10] relates to CHIKV Indian Ocean strain 899 (lab). As to conditions: MOI 0.01, Vero cells; cited from earlier work.
Data set [11] has as its system Vero cells. As to conditions: cited from earlier work.

The term CC50 denotes the concentration at which the toxic effect on the cells reaches its halfway point. The term IC50 denotes the midpoint of a concentration-inhibition curve. On to `CCN(CC)CCCC(C)Nc1ccnc2cc(Cl)ccc12` (stereo not shown) [CQ, chloroquine], for which the cytotoxic concentration (CC50) in data set [1] was greater than 36 µM. Also, in [2] (wt CHIKV), the IC50 was 5 to 10.6 µM.
As for `CCN(CCO)CCCC(C)Nc1ccnc2cc(Cl)ccc12` (stereo not shown) [Hydroxychloroquine, hydroxychloroquine], the IC50 worked out at 18.3 µM in [3] (Chikungunya virus, 96 h, read-out: IC50 (µM) Vero-B4) and 4.14 µM in [4]. In addition, in [3], the “dose-dependent inhibition of CPE / efficacy in Vero-B4” value is “dose-dependent inhibition of CPE”. The “dose-dependent inhibition of CPE / antiviral effect in U138” value in data set [4] is “dose-dependent inhibition of CPE”. Moreover, the CC50 at 4 days in data set [5] amounted to 49.6 µM; in data set [7], 35.5 µM. Further, the “cell damage in toxicity testing” value in [6] is recorded as “Neither T-1105 nor HCQ led to significant cell damage”. Further, in data set [8], the “protection of U138 cells from CPE by wt CHIKV^Brazil compared with CHIKV^Ross” value is recorded as “significantly better”.
What is called viability is a per cent measure of how many cells are alive, often set against a control. The low end stands for more harm to the cells, the high end for less harm to the cells. `NC(=O)c1ncn([C@@H]2O[C@H](CO)[C@@H](O)[C@H]2O)n1` [Ribavirin, ribavirin] had a surviving cells in data set [3] (1000 µM RBV (highest concentration), infected Vero-B4 cells, at MOI 0.325) of 37.55 ± 6.15%. In addition, the “dose-dependent inhibition of CPE / efficacy in Vero-B4” value in data set [3] is “dose-dependent inhibition of CPE”. In addition, the IC50 was 166 µM in data set [4], 424 to 766 µM in [2] (comparable experiments in Vero-E6 cells) and 424 µM in [2] (wt CHIKV). In addition, the “dose-dependent inhibition of CPE / antiviral effect in U138” value in data set [4] is reported as “dose-dependent inhibition of CPE”. Further, the CC50 at 4 days in data set [5] was greater than 1000 µM; in data set [7] it was greater than 500 µM. In addition, in data set [1], the CC50 was greater than 500 µM. In data set [7], this compound returned a viability at 4 days, 410 µM of 70.4 ± 13.1%. Besides, in [8], the “protection of U138 cells from CPE by wt CHIKV^Brazil compared with CHIKV^Ross” value is reported as “significantly better”.
With `NC(=O)c1ncc[nH]c1=O` [T-1105], the “dose-dependent inhibition of CPE / efficacy in Vero-B4” value in data set [3] is recorded as “no dose-dependent efficacy”. Moreover, the “dose-dependent inhibition of CPE / antiviral effect in U138” value in data set [4] is given as “dose-dependent effect”. The CC50 in data set [9] was greater than 100 µM; in data set [6] (read-out: CC50 (µM) U138, non-infected U138 cells, MTS after 4 days), greater than 100 µM; in data set [11], 571 µM. The “cell damage in toxicity testing” value in [6] was “Neither T-1105 nor HCQ led to significant cell damage”. Moreover, the IC50 in data set [10] was 7 to 47 µM.
